Measurements published in US9834773B2, “Methods and means for metabolic engineering and improved product formation by micro-organisms” (Universiteit Leiden, priority 2006, dated 2017).
“Also recorded” adds a separate entry of the source.

What was measured:
[1] = system: several streptomycetes (Bacillus subtilis as the indicator strain); experiment: Global antibiotic activity assay: streptomycetes on MM mannitol with or without GlcNAc, Bacillus subtilis overlay; format: cell-based, Streptomyces species; conditions: MM mannitol 0.5% with vs without GlcNAc 1%; for growth inhibition zones indicative of antibiotic production: B. subtilis indicator
Method: FIG. 23. Conservation of the GlcNAc-dependent antibiotic-inducing pathway amongst streptomycetes. Streptomycetes were grown on MM agar plates with 0.5% mannitol alone (left panel), or with added 1% GlcNAc (right panel), and an overlay was applied containing B. subtilis, allowing visualization of growth inhibition caused by antibiotic production. The tested streptomycetes were Streptomyces lividans 1326 (1326), Streptomyces hygroscopicus (hygro), Streptomyces collinus (colli), Streptomyces roseosporus (roseo), Streptomyces cinnamonensis (cinna), Streptomyces venezuelae (venez), Streptomyces clavuligerus (clavu), Streptomyces rimosus (rimos), Streptomyces griseus (grise), Streptomyces acrimycini (acrim), Streptomyces limosus (limos), and Streptomyces avermitilis (averm). See Materials and Methods section for exact nomenclature. The GlcNAc-triggering effect on antibiotic activity was most obvious for S. hygroscopicus, S. collinus, S. venezuelae, S. clavuligerus, S. rimosus, and S. griseus.
Samples (1 μl) of diluted spore suspensions were spotted on minimal medium plates containing 0.5% mannitol with or without 1% GlcNAc and incubated three days at 28° C. For the bioassay, we inoculated 10 ml of molten soft nutrient agar (SNA) with 500 μl of a Bacillus subtilis overnight culture (0D600˜1), and poured the mixture into square 12-cm-side Petri dishes. Plates were kept 2 h at 4° C. to solidify SNA and to allow diffusion of antibiotics produced, then incubated overnight at 30° C.
Is the GlcNAc-mediated control of antibiotic production a more widespread phenomenon in streptomycetes? To assess this, we evaluated the effect of GlcNAc on total antimicrobial activity (bactericidal and bacteristatic) of several streptomycetes, using Bacillus subtilis as the indicator strain. The tested strains were spotted on minimal medium containing mannitol (0.5%) with or without GlcNAc (1%). Excitingly, growth inhibition zones indicative of antibiotic production were much larger for Streptomyces clavuligerus (a producer of cephamycin), Streptomyces collinus (produces kirromycin), Streptomyces griseus (streptomycin producer), Streptomyces hygroscopicus (produces hygromycin), Streptomyces rimosus (produces oxytetracycline), and Streptomyces venezuelae (chloramphenicol, methymycin) (FIG. 23).

DasR = DasR (Streptomyces coelicolor, UniProt Q9K492); experiment: EMSA binding interference experiment: ability of compounds to interfere with binding of DasR to the nagB and crr promoters; conditions: for effect on formation of the complex of DasR with the nagB promoter (EMSA): 10 nM fluorescent probe, 3 μM purified DasR, 500-fold excess of non-specific DNA, 50, 100, 150, and 200 mM compound
Method: FIG. 12. […] EMSAs were performed with 10 nM fluorescent probe, 3 μM purified DasR, and 500-fold excess of non-specific DNA.
EMSAs were performed with fluorescent probes (10 nM) with an ALF express sequencer (Filee et al., 2001). Purified DasR (3 μM) and 1000-fold excess of non-specific DNA were used in the reaction mixture. Predicted cis-acting elements were taken from the promoter regions of actII-ORF4 (SCO5085; 5′-[…]-3′ (SEQ ID NO:530)), and redZ (SCO5881; 5′-[…]-3′ (SEQ ID NO:531)). Known cis-acting elements upstream of crr (SCO1390; […]-3′ (SEQ ID NO:532)), and crp (SCO3571; 5′-[…]-3′ (SEQ ID NO:533)) were used as positive and negative controls, respectively. The 16 nt dre sites are underlined.
A pivotal question is what is the effector molecule that modulates DasR? As shown in here, many of the targets for DasR relate to the generation (chitinolytic system), transport (PTS^GlcNAc), and metabolism (glycolysis via fructose 6-P) of N-acetylglucosamine. We therefore looked for the inducer among the intermediate molecules that gravitate around aminosugar metabolism. A binding interference experiment was set up where the ability of compounds to interfere with binding of dasR to the nagB and crr promoters was tested. […] The finding that glucosamine-6-P serves as an effector of DasR is explained by its central position at the metabolic crossroads between (GlcNAc)n extracellular degradation, N-acetylglucosamine transport and intracellular metabolism, lipid and nitrogen metabolism, glycolysis, and peptidoglycan synthesis (FIG. 13).

[2] = system: S. coelicolor M145 and nagE1, nagE2 mutants; experiment: Development on R2YE agar plates with or without N-acetylglucosamine; format: cell-based, Streptomyces coelicolor; conditions: N-acetylglucosamine 1% w/v
Method: FIG. 18. N-acetylglucosamine is transported by NagE2 (SCO2907). Mutants deleted for the transport genes nagE1/(SCO2906), nagE2 (SCO2907), or both, were plated on R2YE agar plates with or without N-acetylglucosamine (1% w/v). Other strains on the agar plates are: S.coelicolor M145 (parent of all mutants), the dasR mutant BAP29 and the pts mutants ptsH (BAP1), crr (BAP2), and ptsI (BAP3). For phenotypes of the pts mutants see also FIG. 3A). […] This proves that indeed nagE2 is the transporter of N-caetylglucosamine and is essential for import of the inducer molecule for the DasR control system.
Two possible transporters for N-acetylglucosamine were identified on the S. coelicolor genome, namely the adjacent genes nagE1 (SCO2906) and nagE2 (SCO2907). Mutants were created for both genes by replacing the entire gene by the apramycin resistance cassette aacC4. A double mutant was also produced (BAP6). The method used to do this was by using pWHM3, as described previously (Nothaft et al., 2003). Mutants deleted for the transport genes nagE1 (BAP4), nagE2 (BAP5), or both (BAP6), were plated on R2YE agar plates with or without N-acetylglucosamine (1% w/v). Other strains on the agar plates are: S.coelicolor M145 (parent of all mutants), the dasR mutant BAP29 and the pts mutants ptsH (BAP1), crr (BAP2), and ptsI (BAP3). For phenotypes of the pts mutants see also FIG. 3A). […] This proves that indeed nagE2 is the transporter of N-acetylglucosamine and is essential for import of the inducer molecule for the DasR control system.

Sequence of DasR (Q9K492 whole entry): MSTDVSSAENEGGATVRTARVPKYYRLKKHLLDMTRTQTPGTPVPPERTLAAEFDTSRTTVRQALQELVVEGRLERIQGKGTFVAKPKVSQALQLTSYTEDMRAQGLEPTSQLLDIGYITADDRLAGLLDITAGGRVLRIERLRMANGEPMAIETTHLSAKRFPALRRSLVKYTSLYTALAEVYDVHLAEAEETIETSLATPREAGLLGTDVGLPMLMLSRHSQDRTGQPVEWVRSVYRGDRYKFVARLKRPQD

CC(=O)N[C@H]1C(O)O[C@H](CO)[C@@H](O)[C@@H]1O (stereo partly shown) [N-acetylglucosamine]
antibiotic activity against B. subtilis ([1]; Streptomyces acrimycini): did not seem to affect
antibiotic activity against B. subtilis ([1]; Streptomyces avermitilis): did not seem to affect
antibiotic activity against B. subtilis ([1]; Streptomyces cinnamonensis): did not seem to affect
growth inhibition zones indicative of antibiotic production ([1]; Streptomyces clavuligerus): most obvious; also recorded: much larger
growth inhibition zones indicative of antibiotic production ([1]; Streptomyces collinus): most obvious; also recorded: much larger
growth inhibition zones indicative of antibiotic production ([1]; Streptomyces griseus): most obvious; also recorded: much larger
growth inhibition zones indicative of antibiotic production ([1]; Streptomyces hygroscopicus): most obvious; also recorded: much larger
antibiotic activity against B. subtilis ([1]; Streptomyces limosus): did not seem to affect
antibiotic activity against B. subtilis ([1]; Streptomyces lividans): did not seem to affect
growth inhibition zones indicative of antibiotic production ([1]; Streptomyces rimosus): most obvious; also recorded: much larger
antibiotic activity against B. subtilis ([1]; Streptomyces roseosporus): repressing effect
growth inhibition zones indicative of antibiotic production ([1]; Streptomyces venezuelae): most obvious; also recorded: much larger
effect on formation of the complex of DasR with the nagB promoter (EMSA) (DasR): it was the only of the compounds tested that prevented the formation of a complex
effect on formation of the complex of DasR with the nagB promoter (EMSA) (DasR; listed as GlcNAc): no effect
effect on formation of the complex of DasR with the crr promoter region (EMSA) (DasR; crr promoter, data not shown): it was the only of the compounds tested that prevented the formation of a complex
effect on development ([2]; nagE1/nagE2 double mutant (BAP6), R2YE agar): no effect on development
effect on development ([2]; nagE1 mutant (BAP4), R2YE agar): arrested in the vegetative state
effect on development ([2]; nagE2 mutant (BAP5), R2YE agar): no effect on development
effect on development ([2]; parental strain S. coelicolor M145, R2YE agar): arrested in the vegetative state
